Results reported in patent US20250195521A1 (Revolution Medicines, Inc., priority 2020, published 2025).
Where two headings read alike, the source gives them in different places.

Assays:
[1] = tested on: Capan-1 cells (K-Ras G12V); test: CellTiter-Glo cell viability, Capan-1; format: cell-based, human; conditions: K-Ras G12V, 5-day treatment, read-out: Capan-1 Cell Viability IC50
How it was run: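 Cells seeded, compound dispensed straight into wells, 5-day exposure. Plates brought to room temperature ~30 min, CellTiter-Glo luminescence measured. Normalized to DMSO (%), 4-parameter logistic fit.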

[2] = molecular target: KRAS G12C (Homo sapiens (Human), UniProt P01116+P62937, G12C); test: Ras-Raf disruption/FRET/MOA assay (BRAF RBD, Cyclophilin A); format: biochemical; conditions: read-out: KRAS G12C FRET IC50
Description: (§1) Compound is present in plate wells as a 10-point 3-fold dilution series starting at a final concentration of 30 μM. After incubation at 25° C. for 3 hours, a mixture of Anti-His Eu—W1024 and anti-GST allophycocyanin is then added to assay sample wells at final concentrations of 10 nM and 50 nM, respectively, and the reaction incubated for an additional 1.5 hours. […] Compounds that facilitate disruption of a Ras: RAF complex are identified as those eliciting a decrease in the TR-FRET ratio relative to DMSO control wells.
(§2) Disruption of B-Raf Ras-Binding Domain (BRAF^RBD) Interaction with K-Ras by Compounds of the Invention (Also Called a FRET Assay or an MOA Assay)
(§3) Note—The following protocol describes a procedure for monitoring disruption of K-Ras G12C (GMP-PNP) binding to BRAF^RBD by a compound of the invention. This protocol may also be executed substituting other Ras proteins or nucleotides.
(§4) The purpose of this biochemical assay was to measure the ability of test compounds to facilitate ternary complex formation between a nucleotide-loaded K-Ras isoform and Cyclophilin A; the resulting ternary complex disrupts binding to a BRAF^RBD construct, inhibiting K-Ras signaling through a RAF effector. Data is reported as IC50 values.
(§5) In assay buffer containing 25 mM HEPES pH 7.3, 0.002% Tween20, 0.1% BSA, 100 mM NaCl and 5 mM MgCl2, tagless Cyclophilin A, His6-K-Ras-GMPPNP, and GST-BRAF^RBD were combined in a 384-well assay plate at final concentrations of 25 μM, 12.5 nM and 50 nM, respectively. Compound was present in plate wells as a 10-point 3-fold dilution series starting at a final concentration of 30 μM. After incubation at 25° C. for 3 hours, a mixture of Anti-His Eu—W1024 and anti-GST allophycocyanin was then added to assay sample wells at final concentrations of 10 nM and 50 nM, respectively, and the reaction incubated for an additional 1.5 hours. […] Compounds that facilitate disruption of a K-Ras: RAF complex were identified as those eliciting a decrease in the TR-FRET ratio relative to DMSO control wells.

[3] = molecular target: KRAS G12D (Homo sapiens (Human), UniProt P01116+P62937, G12D); test: as above; format: biochemical; conditions: read-out: KRAS G12D FRET IC50
Description: as §1, §2, §3, §4, §5

[4] = molecular target: KRAS G12S (Homo sapiens (Human), UniProt P01116+P62937, G12S); test: as above; format: biochemical; conditions: read-out: KRAS G12S FRET IC50
Description: as §1, §2, §3, §4, §5

[5] = molecular target: KRAS G12V (Homo sapiens (Human), UniProt P01116+P62937, G12V); test: as above; format: biochemical; conditions: read-out: KRAS G12V FRET IC50
Description: as §1, §2, §3, §4, §5

[6] = molecular target: KRAS G13C (Homo sapiens (Human), UniProt P01116+P62937, G13C); test: as above; format: biochemical; conditions: read-out: KRAS G13C FRET IC50
Description: as §1, §2, §3, §4, §5

[7] = molecular target: KRAS G13D (Homo sapiens (Human), UniProt P01116+P62937, G13D); test: as above; format: biochemical; conditions: read-out: KRAS G13D FRET data IC50
Description: as §1, §2, §3, §4, §5

[8] = molecular target: KRAS WT (Homo sapiens (Human), UniProt P01116+P62937); test: as above; format: biochemical; conditions: read-out: KRAS WT FRET data IC50
Description: as §1, §2, §3, §4, §5

[9] = molecular target: NRAS G12C (Homo sapiens (Human), UniProt P01111+P62937, G12C); test: as above; format: biochemical; conditions: read-out: NRAS G12C FRET data IC50
Description: as §1, §2, §3, §4, §5

[10] = tested on: K-Ras G12C (NCI-H358 cells); test: Potency assay: pERK in NCI-H358 cells; format: cell-based, human; conditions: Homo sapiens; NCI-H358 cells, 4 hours; read-out: pERK EC50 (H358 KRAS G12C)
How it was run: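 Cells plated the day before were exposed for 4 h at 37° C, 5% CO2 to a 10-point, 3-fold DMSO dilution series (10 mM top stock), in duplicate. Phospho-ERK was read by AlphaLISA SureFire Ultra or by In-Cell Western with DRAQ5 DNA stain, and IC50 came from a 4-parameter sigmoidal fit.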

Sequence of KRAS G12C (P01116-2 other isoform, or with tags, fused parts or gaps G12C): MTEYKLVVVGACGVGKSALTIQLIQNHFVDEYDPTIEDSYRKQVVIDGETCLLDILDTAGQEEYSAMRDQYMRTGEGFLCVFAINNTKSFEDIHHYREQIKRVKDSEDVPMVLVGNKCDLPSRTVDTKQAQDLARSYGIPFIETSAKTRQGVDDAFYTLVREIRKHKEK
Sequence of KRAS G12C (P62937 whole entry): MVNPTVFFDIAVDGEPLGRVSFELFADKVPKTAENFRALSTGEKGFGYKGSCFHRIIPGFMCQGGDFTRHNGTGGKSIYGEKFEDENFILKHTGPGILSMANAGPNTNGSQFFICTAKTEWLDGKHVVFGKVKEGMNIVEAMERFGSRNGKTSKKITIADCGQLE
Sequence of KRAS G12S (P01116 other isoform, or with tags, fused parts or gaps G12S): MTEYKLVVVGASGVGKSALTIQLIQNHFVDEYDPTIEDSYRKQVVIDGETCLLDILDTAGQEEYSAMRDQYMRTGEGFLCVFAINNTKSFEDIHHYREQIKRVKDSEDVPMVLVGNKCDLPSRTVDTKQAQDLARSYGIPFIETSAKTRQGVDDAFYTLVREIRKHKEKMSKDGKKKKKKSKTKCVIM
Sequence of KRAS G12S (P62937 whole entry): as the sequence (P62937 whole entry) above
Sequence of KRAS G13D (P01116 other isoform, or with tags, fused parts or gaps G13D): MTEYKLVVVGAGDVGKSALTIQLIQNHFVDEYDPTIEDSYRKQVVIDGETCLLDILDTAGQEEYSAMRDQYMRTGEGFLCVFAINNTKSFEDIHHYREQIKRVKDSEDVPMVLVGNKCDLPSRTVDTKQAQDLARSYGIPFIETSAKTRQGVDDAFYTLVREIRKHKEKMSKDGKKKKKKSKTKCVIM
Sequence of KRAS G13D (P62937 whole entry): as the sequence (P62937 whole entry) above
Sequence of KRAS G12V (P01116 other isoform, or with tags, fused parts or gaps G12V): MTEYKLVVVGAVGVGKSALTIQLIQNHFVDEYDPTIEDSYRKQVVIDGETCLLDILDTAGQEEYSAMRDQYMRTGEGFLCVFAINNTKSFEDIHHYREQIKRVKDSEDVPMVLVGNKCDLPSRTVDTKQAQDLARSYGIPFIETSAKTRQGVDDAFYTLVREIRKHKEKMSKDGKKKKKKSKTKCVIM
Sequence of KRAS G12V (P62937 whole entry): as the sequence (P62937 whole entry) above
Sequence of KRAS WT (P01116 other isoform, or with tags, fused parts or gaps): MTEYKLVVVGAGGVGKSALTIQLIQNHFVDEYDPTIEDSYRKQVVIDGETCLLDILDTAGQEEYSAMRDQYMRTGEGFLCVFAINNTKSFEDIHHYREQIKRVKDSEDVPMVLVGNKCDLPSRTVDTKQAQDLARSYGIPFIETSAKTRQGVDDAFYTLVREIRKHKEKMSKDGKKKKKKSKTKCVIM
Sequence of KRAS WT (P62937 whole entry): as the sequence (P62937 whole entry) above
Sequence of NRAS G12C (P01111 whole entry G12C): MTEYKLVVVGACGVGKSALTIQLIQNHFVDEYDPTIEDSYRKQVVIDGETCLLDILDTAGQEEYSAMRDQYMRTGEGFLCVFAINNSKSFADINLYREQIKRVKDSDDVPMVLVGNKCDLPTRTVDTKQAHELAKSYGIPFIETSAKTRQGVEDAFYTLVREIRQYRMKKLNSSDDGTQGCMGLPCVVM
Sequence of NRAS G12C (P62937 whole entry): as the sequence (P62937 whole entry) above
Sequence of KRAS G12D (P01116 other isoform, or with tags, fused parts or gaps G12D): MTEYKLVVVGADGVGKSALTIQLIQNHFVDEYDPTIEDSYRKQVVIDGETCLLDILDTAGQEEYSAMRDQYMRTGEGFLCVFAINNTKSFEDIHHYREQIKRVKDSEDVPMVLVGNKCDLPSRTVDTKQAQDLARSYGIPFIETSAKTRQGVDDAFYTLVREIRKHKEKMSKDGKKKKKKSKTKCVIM
Sequence of KRAS G12D (P62937 whole entry): as the sequence (P62937 whole entry) above
Sequence of KRAS G13C (P01116 other isoform, or with tags, fused parts or gaps G13C): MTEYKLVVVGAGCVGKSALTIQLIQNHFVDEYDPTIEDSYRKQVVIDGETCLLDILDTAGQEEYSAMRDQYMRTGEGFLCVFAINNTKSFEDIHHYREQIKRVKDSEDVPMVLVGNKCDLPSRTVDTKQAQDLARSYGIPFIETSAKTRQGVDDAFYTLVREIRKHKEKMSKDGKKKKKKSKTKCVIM
Sequence of KRAS G13C (P62937 whole entry): as the sequence (P62937 whole entry) above

IC50 [2]	IC50 [3]	IC50 [4]	IC50 [5]	IC50 [6]	IC50 [7]	IC50 [8]	IC50 [9]	EC50 [10]	Structure (SMILES)	IC50 ([1]; Homo sapiens, CAPAN-1, 120 h)	IC50 [1]
100 to 1000 nM	> 10000 nM	1000 to 10000 nM	1000 to 10000 nM	100 to 1000 nM	1000 to 10000 nM	1000 to 10000 nM	1000 to 10000 nM	< 5000 nM	CCn1c(-c2cnccc2COC)c2c3cc(ccc31)-c1cc(O)cc(c1)C[C@H](NC(=O)[C@H](C(C)C)N(C)c1nccs1)C(=O)N1CCC[C@H](N1)C(=O)OCC(C)(C)C2 [Compound A86]	> 10000 nM	–
100 to 1000 nM	100 to 1000 nM	100 to 1000 nM	1000 to 10000 nM	10 to 100 nM	10 to 100 nM	100 to 1000 nM	100 to 1000 nM	< 5000 nM	CCn1c(-c2cnccc2COC)c2c3cc(ccc31)-c1cc(O)cc(c1)C[C@H](NC(=O)[C@H](C(C)C)N(C)C(=O)C1CN(C)C1)C(=O)N1CCC[C@H](N1)C(=O)OCC(C)(C)C2 [Compound A88]	> 10000 nM	–
1000 to 10000 nM	1000 to 10000 nM	1000 to 10000 nM	> 10000 nM	100 to 1000 nM	1000 to 10000 nM	1000 to 10000 nM	1000 to 10000 nM	< 5000 nM	CCn1c(-c2cccnc2[C@H](C)OC)c2c3cc(ccc31)-c1cccc(c1)C[C@H](NC(=O)[C@H](C(C)C)N(C)C(=O)[C@H]1CCN(C)C1)C(=O)N1CCC[C@H](N1)C(=O)OCC(C)(C)C2 [Compound A107]	1000 to 10000 nM	–
100 to 1000 nM	1000 to 10000 nM	1000 to 10000 nM	1000 to 10000 nM	100 to 1000 nM	1000 to 10000 nM	100 to 1000 nM	1000 to 10000 nM	< 5000 nM	CCn1c(-c2cccnc2[C@H](C)OC)c2c3cc(ccc31)-c1cc(O)cc(c1)C[C@H](NC(=O)[C@@H]1[C@H](C)CCN1C(C)=O)C(=O)N1CCC[C@H](N1)C(=O)OCC(C)(C)C2 [Compound A144]	1000 to 10000 nM	–
100 to 1000 nM	100 to 1000 nM	100 to 1000 nM	100 to 1000 nM	100 to 1000 nM	100 to 1000 nM	100 to 1000 nM	100 to 1000 nM	< 5000 nM	CCn1c(-c2cccnc2[C@H](C)OC)c2c3cc(ccc31)-c1cc(O)cc(c1)C[C@H](NC(=O)[C@H](C(C)C)N(C)C(=O)[C@H]1CC1(C)C)C(=O)N1CCC[C@H](N1)C(=O)OCC(C)(C)C2 [Compound A158]	1000 to 10000 nM	–
100 to 1000 nM	> 10000 nM	1000 to 10000 nM	1000 to 10000 nM	100 to 1000 nM	1000 to 10000 nM	1000 to 10000 nM	1000 to 10000 nM	< 5000 nM	CCn1c(-c2cccnc2[C@H](C)OC)c2c3cc(ccc31)-c1cc(O)cc(c1)C[C@H](NC(=O)[C@H]1C[C@@H]1C)C(=O)N1CCC[C@H](N1)C(=O)OCC(C)(C)C2 [Compound A182]	1000 to 10000 nM	–
10 to 100 nM	100 to 1000 nM	10 to 100 nM	10 to 100 nM	10 to 100 nM	10 to 100 nM	10 to 100 nM	10 to 100 nM	< 5000 nM	CCn1c(-c2cccnc2[C@H](C)OC)c2c3cc(ccc31)-c1csc(n1)C[C@H](NC(=O)[C@H](C(C)C)N(C)C(=O)N1[C@H](C)COC[C@H]1C)C(=O)N1CCC[C@H](N1)C(=O)OCC(C)(C)C2 [Compound A275]	100 to 1000 nM	–
100 to 1000 nM	1000 to 10000 nM	100 to 1000 nM	100 to 1000 nM	100 to 1000 nM	1000 to 10000 nM	100 to 1000 nM	100 to 1000 nM	< 5000 nM	CCn1c(-c2cccnc2[C@H](C)OC)c2c3cc(ccc31)-c1csc(n1)C[C@H](NC(=O)[C@H](C(C)C)N(C)C(=O)N1CCN3CCOCC3C1)C(=O)N1CCC[C@H](N1)C(=O)OCC(C)(C)C2 (stereo partly shown) [Compound A296]	10 to 100 nM	–
10 to 100 nM	100 to 1000 nM	100 to 1000 nM	100 to 1000 nM	100 to 1000 nM	100 to 1000 nM	10 to 100 nM	10 to 100 nM	–	CCn1c(-c2cccnc2[C@H](C)OC)c2c3cc(ccc31)-c1csc(n1)C[C@H](NC(=O)[C@H](C(C)C)N(C)C(=O)N1CC(C3COC3)C1)C(=O)N1CCC[C@H](N1)C(=O)OCC(C)(C)C2 [Compound A298]	10 to 100 nM	–
10 to 100 nM	100 to 1000 nM	100 to 1000 nM	100 to 1000 nM	100 to 1000 nM	100 to 1000 nM	100 to 1000 nM	10 to 100 nM	–	CO[C@@H](C)c1ncccc1-c1c2c3cc(ccc3n1CC(F)(F)F)-c1csc(n1)C[C@H](NC(=O)[C@H](C(C)C)N(C)C(=O)N1CC(N(C)C)C1)C(=O)N1CCC[C@H](N1)C(=O)OCC(C)(C)C2 [Compound A303]	–	10 to 100 nM
100 to 1000 nM	1000 to 10000 nM	1000 to 10000 nM	100 to 1000 nM	100 to 1000 nM	100 to 1000 nM	100 to 1000 nM	100 to 1000 nM	–	CCn1c(-c2cccnc2[C@H](C)OC)c2c3cc(ccc31)-c1cc(O)cc(c1)C[C@H](NC(=O)[C@H](C(C)C)N1CNCC1=O)C(=O)N1CCC[C@H](N1)C(=O)OCC(C)(C)C2 [Compound A345]	1000 to 10000 nM	–
10 to 100 nM	10 to 100 nM	10 to 100 nM	10 to 100 nM	10 to 100 nM	10 to 100 nM	10 to 100 nM	10 to 100 nM	< 5000 nM	CCn1c(-c2cccnc2[C@H](C)OC)c2c3cc(ccc31)-c1cc(O)cc(c1)C[C@H](NC(=O)[C@H](C(C)C)N(C)C(=O)[C@@H]1CCN(C(=O)OC)C1)C(=O)N1CCC[C@H](N1)C(=O)OCC(C)(C)C2 [Compound A365]	10 to 100 nM	–
10 to 100 nM	10 to 100 nM	10 to 100 nM	10 to 100 nM	10 to 100 nM	10 to 100 nM	10 to 100 nM	10 to 100 nM	< 5000 nM	CCn1c(-c2cccnc2[C@H](C)OC)c2c3cc(ccc31)-c1cc(O)cc(c1)C[C@H](NC(=O)[C@H](C(C)C)N(C)C(=O)[C@H]1CCN(C(=O)[C@@H]3CCCN3)C1)C(=O)N1CCC[C@H](N1)C(=O)OCC(C)(C)C2 [Compound A370]	1000 to 10000 nM	–
1000 to 10000 nM	> 10000 nM	1000 to 10000 nM	1000 to 10000 nM	100 to 1000 nM	1000 to 10000 nM	1000 to 10000 nM	1000 to 10000 nM	–	CCn1c(-c2cccnc2[C@H](C)OC)c2c3cc(ccc31)-c1cc(O)cc(c1)C[C@H](NC(=O)C(C)=C(C)C)C(=O)N1CCC[C@H](N1)C(=O)OCC(C)(C)C2 [Compound A398]	1000 to 10000 nM	–
